Reference: publication PMC8881501, “Identification of SARS-CoV-2 inhibitors targeting Mpro and PLpro using in-cell-protease assay” (Communications Biology, 2022)
“And” between values parts separate entries of the source, which are not always exact repeats. Identical values can stand only once. Counter-ions that a name gives are not always drawn. Like-named read-outs stand apart in the source and are kept apart here.

Tests used:
SARS-CoV-2 Mpro [1] = biological target: T1, SARS-CoV-2 Mpro (Severe acute respiratory syndrome coronavirus 2, UniProt P0DTC1); test: biochemical; conditions: for inhibition of Mpro protease activity: FRET assay
Experimental: A cleavage site is indicated by an asterisk. […] N = 3, values are represented as mean ± SE.
For the determination of half-maximal inhibitory concentrations (IC50) of MG-101 and GC376 (BPS Bioscience), a synthetic substrate of Mpro containing FRET pair and Mpro nsp4/5 cleavage site (indicated by an arrow, Dabcyl-KTSAVLQ ↓ SGFRKME-Edans) (BPS Bioscience) was used for the FRET-based cleavage assay. The assay was performed in 96-well, black, flat-bottomed microtiter plates (Greiner Bio-One, Germany) with a final volume of 50 μl. Mpro (a final concentration of 200 nM) was pre-incubated for 1 h at 22 °C with compounds at different concentrations in the assay buffer (20 mM HEPES (pH 7), 0.5 mM EDTA, 1 mM dithiothreitol, 5% glycerol). The substrate was then added at a final concentration of 10 μM to the reaction mixture and the reaction was incubated for 4 h at 22 °C. The readings for the different concentrations of the inhibitor compounds incubated with the substrate without Mpro were measured as a blank. The fluorescence signals (excitation/emission, 360 nm/460 nm) of released EDANS were measured using Infinite 200 PRO multimode plate reader (Tecan, USA). The results were plotted as dose inhibition curves using nonlinear regression with a variable slope to determine the IC50 values of inhibitor compounds using GraphPad Prism 9.0.

Mpro = conditions: read-out: IC50, reported value; cited from earlier work
SARS-CoV-2 Mpro [2] = biological target: T1, SARS-CoV-2 Mpro; test: In-cell protease (ICP) assay, Mpro construct in HEK293T cells; type: cell-based; conditions: for remaining activity at 1 µM / remaining activity at 10 µM: HEK-293T; for remaining activity at 1 µM: read-out: mEmerald-NLS nuclear/total fluorescence (protease activity) normalized to untreated cells, 1 μM, HEK293T, Fig 2A replicate data, untreated control = 100; for remaining activity at 10 µM: read-out: mEmerald-NLS nuclear/total fluorescence (protease activity) normalized to untreated cells, 10 μM, HEK293T, Fig 2A replicate data, untreated control = 100
SARS-CoV-2 [3] = type: cell-based; conditions: Huh-7.5, MOI 0.1, 24 h.p.i., anti-N IFA
SARS-CoV-2 [4] = test: microbe, parasite or virus in culture; type: cell-based
in vitro = conditions: human
SARS-CoV = conditions: Vero E6 cells; cited from earlier work
[5] = Cytotoxicity assay (alamarBlue) on Huh-7.5 cells; conditions: human, CC50, Huh-7.5 cells, alamarBlue reduction
Huh-7.5 cells = test: Cytotoxicity assay (alamarBlue) on Huh-7.5 cells; conditions: Huh-7.5 cells, alamarBlue reduction
HEK293T cells = test: Cell viability (alamarBlue) on HEK293T cells; conditions: replicate data
SARS-CoV-2 [6] = test: Time of addition (pre-treatment) experiment in Huh-7.5 cells, plaque assay; type: cell-based; conditions: Huh-7.5, pretreatment
SARS-CoV-2 [7] = conditions: Vero E6 cells; cited from earlier work
SARS-CoV-2 [8] = test: qRT-PCR of viral RNA molecules in infected Huh-7.5 cells; type: cell-based; conditions: Huh-7.5, 24 h.p.i.
Experimental: We tested the effect of selected compounds in inhibiting the spread of SARS-CoV-2 on cell monolayers was tested by immunofluorescence assay (IFA) (Fig. 5a). From the percentage of inhibition (Fig. 5b), we calculated that the PLpro inhibitors Sitagliptin and Daclastavir inhibited virus spread by 75% and 70%, respectively, compared to untreated controls (Fig. 5b). […] We next determined whether the reduction in virus spread in the inhibitor-treated cells correlates with virus replication. We extracted total RNA from infected cells treated with inhibitors and quantified the number of viral RNA molecules by quantitative real-time polymerase chain reaction (qRT-PCR) (Fig. 5c). […] However, the reduction in the number of viral RNA molecules was lower for BMS-707035 (1-log reduction), Atazanavir (0.5-log), and Lomibuvir (0.5-log).
Fig. 5 Effect of compounds selected from ICP assay on SARS-CoV-2 replication. a Huh-7.5 cells positive for SARS-CoV-2 determined by immunofluorescence assay. Huh-7.5 cells pre-treated for 24 h with inhibitors were infected with SARS-CoV-2 at an MOI of 0.1. At 24 h.p.i., cells were fixed with paraformaldehyde and probed with anti-N (SARS CoV-2 nucleocapsid) primary antibody and FITC-conjugated goat anti-rabbit secondary antibody (green, infected cells). Nuclei were stained with Hoechst stain and confocal images were acquired. b The ratio of infected to uninfected cells for each treatment was calculated using Nikon Elements software and normalized to untreated controls (n = 5). c Quantification of SARS-CoV-2 RNA molecules from infected cells treated with inhibitors as indicated (n = 3).
Huh-7.5 cells grown in DMEM in 6 well tissue culture plates were pre-treated with different concentrations of compounds for 24 h were infected with 0.1 MOI of SARS-CoV-2. After 1 h of infection, virus-containing media were replaced with fresh media-containing compounds, and the plates were incubated at 37 °C. Untreated cells were included in the experiment as controls. After 24 h, total RNA was extracted from the cells using a Zymopure Quick-RNA extraction kit. The number of viral RNA molecules in the extracted total RNA samples was determined by quantitative RT-PCR on a QuantStudio-3 machine (Applied BioSystems) using primers –Forward […] and Reverse […]. The Ct values obtained were used to calculate the number of RNA molecules using a standard curve of Ct versus RNA molecules.

COVID-19 = system: COVID-19; design: method as in PMID 32994187; conditions: cited from earlier work
SARS-CoV-2 PLpro [9] = biological target: T2, SARS-CoV-2 PLpro (Severe acute respiratory syndrome coronavirus 2, UniProt P0DTC1); test: In vitro PLpro protease inhibition assay (Z-RLRGG-AMC); type: biochemical; conditions: PLpro 300 nM, Z-RLRGG-AMC 25 μM; read-out: IC50
SARS-CoV-2 PLpro [10] = biological target: T2, SARS-CoV-2 PLpro; test: cell-based; conditions: HEK-293T, read-out: mEmerald-NLS nuclear/total fluorescence (protease activity) normalized to untreated cells, 10 μM, HEK293T, Fig 2A replicate data, untreated control = 100
[11] = Severe acute respiratory syndrome coronavirus 2, Huh7.5, Huh-7.5 cells, MOI 0.1, 24 h.p.i., plaque assay

CC(C)C[C@H](NC(=O)OCc1ccccc1)C(=O)N[C@@H](CC1CCNC1=O)C(O)S(=O)(=O)O (stereo partly shown) [GC376]
IC50 (SARS-CoV-2 Mpro [1]): 130 ± 70 nM
IC50 (Mpro): 190 nM

COc1cc(O)c(CC=C(C)C)c2c1C(=O)CC(c1ccc(O)cc1)O2 (stereo not shown) [Isoxanthohumol]
remaining activity at 1 µM (SARS-CoV-2 Mpro [2]): 90%
remaining activity at 10 µM (SARS-CoV-2 Mpro [2]): 60%

CC(C)(C)C#Cc1cc(N(C(=O)[C@H]2CC[C@H](C)CC2)[C@H]2CC[C@H](O)CC2)c(C(=O)O)s1 [Lomibuvir]
inhibition of virus spread compared to untreated controls (SARS-CoV-2 [3]): below 50%
EC50 (SARS-CoV-2 [4]; [11]): 70 nM
inhibition of Mpro protease activity (SARS-CoV-2 Mpro [1]): not found to be effectively inhibiting the Mpro protease activity
CC50 at 24 h (in vitro; CC50): 48000 nM
remaining activity at 1 µM (SARS-CoV-2 Mpro [2]): 90%
remaining activity at 10 µM (SARS-CoV-2 Mpro [2]): 44%

Cc1cccc(C)c1OCC(=O)N[C@@H](Cc1ccccc1)[C@@H](O)C[C@H](Cc1ccccc1)NC(=O)[C@H](C(C)C)N1CCCNC1=O [Lopinavir]
remaining activity at 1 µM (SARS-CoV-2 Mpro [2]): 80%
remaining activity at 10 µM (SARS-CoV-2 Mpro [2]): 65%

O[C@H]1[C@H]2c3cc4c(cc3CN3CCC(=C[C@@H]1O)[C@H]23)OCO4 [Lycorine HCl]
inhibition of virus spread compared to untreated controls (SARS-CoV-2 [3]): 88%
EC50 (SARS-CoV): 16 nM
Selectivity index SI = CC50/EC50 (SARS-CoV-2 [4]; Huh-7.5 cells): 1878
EC50 (SARS-CoV-2 [4]; Severe acute respiratory syndrome coronavirus 2, Huh7.5, 24 h): 10 nM
CC50 at 24 h [5]: 18800 nM
CC50 (Huh-7.5 cells): 19000 nM
inhibition of Mpro protease activity (SARS-CoV-2 Mpro [1]): not found to be effectively inhibiting the Mpro protease activity
% normalised alamar Blue reduction at 10μM (HEK293T cells; listed as Lycorine hydrochloride): 76% and 65% and 69.32%
remaining activity at 1 µM (SARS-CoV-2 Mpro [2]): 43%
remaining activity at 10 µM (SARS-CoV-2 Mpro [2]): 25%
effect of pre-treatment on virus production / entry (SARS-CoV-2 [6]): only minimal effect on virus production
EC50 (SARS-CoV-2 [7]): 300 nM

Cc1c(O)cccc1C(=O)N[C@@H](CSc1ccccc1)[C@H](O)CN1C[C@H]2CCCC[C@H]2C[C@H]1C(=O)NC(C)(C)C [Nelfinavir mesylate]
inhibition of virus spread compared to untreated controls (SARS-CoV-2 [3]): 95%
reduction in the number of viral RNA molecules compared to untreated cells (SARS-CoV-2 [8]): approximately 3 log
reduction in the number of viral RNA molecules compared to untreated cells (SARS-CoV-2 [8]; listed as Nelfinavir): 3 log
virus titer at 24 h.p.i., Fig S2B data (SARS-CoV-2 [4]; 1 µM final concentration (each), Huh-7.5, replicates): 80000 and 64000 and 88000
EC50 (SARS-CoV-2 [4]; [11]): 70 nM
CC50 at 24 h [5]: 26000 nM
CC50 (Huh-7.5 cells): 26000 nM
inhibition of Mpro protease activity (SARS-CoV-2 Mpro [1]): not found to be effectively inhibiting the Mpro protease activity
% normalised alamar Blue reduction at 10μM (HEK293T cells): 88% and 75.67% and 90%
remaining activity at 1 µM (SARS-CoV-2 Mpro [2]): 60%
remaining activity at 10 µM (SARS-CoV-2 Mpro [2]): 45%
effect of pre-treatment on virus production / entry (SARS-CoV-2 [6]): only minimal effect on virus production

N[C@@H](CC(=O)N1CCn2c(nnc2C(F)(F)F)C1)Cc1cc(F)c(F)cc1F [Sitagliptin]
inhibition of virus spread compared to untreated controls (SARS-CoV-2 [3]): 75%
reduction in the number of viral RNA molecules compared to untreated cells (SARS-CoV-2 [8]): 2 log
Selectivity index SI = CC50/EC50 (SARS-CoV-2 [4]): 67
EC50 (SARS-CoV-2 [4]; [11]): 320 nM
virus titer at 24 h.p.i., Fig 6A data (SARS-CoV-2 [4]; single drug 1 μM, Huh 7.5, replicates): 56000 and 64000 and 40000
CC50 (Huh-7.5 cells): 22000 nM
CC50 at 24 h (in vitro; CC50, Huh-7.5 cells, alamarBlue reduction): 21600 nM
mortality rate (deceased patients) (COVID-19; added to standard care, vs. 37% with standard of care): 18%
improved clinical outcomes (improved patients) (COVID-19; vs. 38% with standard of care): 60%
hospital discharges (discharged patients) (COVID-19; vs. 89 with standard of care): 120
IC50 (SARS-CoV-2 PLpro [9]): 1140 ± 190 nM
remaining activity at 10 µM (SARS-CoV-2 PLpro [10]): 56%
effect on Mpro activity in cells (SARS-CoV-2 Mpro [2]; ICP assay): does not inhibit Mpro activity
